Laboratory results as given in patent US20230085307A1, “PYRIDAZINONE COMPOUND AND HERBICIDE” (NISSAN CHEMICAL CORPORATION, priority 2019, published 2023).

What was measured:
velvetleaf [1] = assay: Test Example 5: herbicidal effect by foliage application, plastic box (Table 20, symbol M); format: in vivo, velvetleaf (Abutilon theophrasti); settings: 320 g/ha, foliage application after 14-day growth, evaluated three weeks after application
Summary of the method: (§1)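 Foliar spray test: emulsion formulation diluted in water to a set application rate, sprayed onto 14-day-old plants raised in diluvial soil at 25° C to 30° C under glass. Both herbicidal effect and crop effect rated visually three weeks later.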

redroot pigweed [2] = assay: Test Example 4: herbicidal effect by soil treatment (Table 19, symbol N); format: in vivo, redroot pigweed (Amaranthus retroflexus); settings: amount of applied herbicide 320 g/ha
Summary of the method: (§2)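 Herbicidal effect was rated 3 weeks after treatment, using the scoring criteria of an earlier test. The compound, formulated as an emulsion and diluted in water to a set herbicide amount, had been sprayed uniformly on soil over freshly sown seeds. Growth took place in a greenhouse at 25° C. to 30° C.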

barnyard grass [3] = assay: Test Example 4: herbicidal effect by soil treatment (Table 19, symbol H); format: in vivo, barnyard grass (Echinochloa crus-galli); settings: amount of applied herbicide 320 g/ha
Summary of the method: as §2

chickweed [4] = assay: Test Example 5: herbicidal effect by foliage application, plastic box (Table 20, symbol P); format: in vivo, common chickweed (Stellaria media); settings: 320 g/ha, foliage application after 14-day growth, evaluated three weeks after application
Summary of the method: as §1

barnyard grass [5] = assay: Test Example 3: herbicidal effect by foliage application, Wagner pot (Table 18, symbol H); format: in vivo, barnyard grass (Echinochloa crus-galli); settings: 320 g/ha
Summary of the method: (§3)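 Plants were sown in alluvial soil held under 0.1–0.5 cm standing water and grown 14 days in a greenhouse at 25–30 °C. An emulsifiable formulation, water-diluted to the set dose, was then sprayed onto the foliage, and effects were scored three weeks later using previously defined criteria.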

Italian ryegrass [6] = assay: Test Example 5: herbicidal effect by foliage application, plastic box (Table 20, symbol K); format: in vivo, Italian ryegrass (Lolium multiflorum); settings: 320 g/ha, foliage application after 14-day growth, evaluated three weeks after application
Summary of the method: as §1

Chinese sprangletop = assay: Test Example 3: herbicidal effect by foliage application, Wagner pot (Table 18, symbol D); format: in vivo, chinese sprangletop (Leptochloa chinensis); settings: 320 g/ha
Summary of the method: as §3

lambsquarters [7] = assay: Test Example 5: herbicidal effect by foliage application, plastic box (Table 20, symbol O); format: in vivo, lambsquarters (Chenopodium album); settings: 320 g/ha, foliage application after 14-day growth, evaluated three weeks after application
Summary of the method: as §1

southern crabgrass [8] = assay: Test Example 5: herbicidal effect by foliage application, plastic box (Table 20, symbol F); format: in vivo, southern crabgrass (Digitaria ciliaris); settings: 320 g/ha, foliage application after 14-day growth, evaluated three weeks after application
Summary of the method: as §1

redroot pigweed [9] = assay: Test Example 5: herbicidal effect by foliage application, plastic box (Table 20, symbol N); format: in vivo, redroot pigweed (Amaranthus retroflexus); settings: 320 g/ha, foliage application after 14-day growth, evaluated three weeks after application
Summary of the method: as §1

lambsquarters [10] = assay: Test Example 4: herbicidal effect by soil treatment (Table 19, symbol O); format: in vivo, lambsquarters (Chenopodium album); settings: amount of applied herbicide 320 g/ha
Summary of the method: as §2

blackgrass [11] = assay: Test Example 5: herbicidal effect by foliage application, plastic box (Table 20, symbol J); format: in vivo, blackgrass (Alopecurus myosuroides); settings: 320 g/ha, foliage application after 14-day growth, evaluated three weeks after application
Summary of the method: as §1

green foxtail [12] = assay: Test Example 5: herbicidal effect by foliage application, plastic box (Table 20, symbol G); format: in vivo, green foxtail (Setaria viridis); settings: 320 g/ha, foliage application after 14-day growth, evaluated three weeks after application
Summary of the method: as §1

blackgrass [13] = assay: Test Example 4: herbicidal effect by soil treatment (Table 19, symbol J); format: in vivo, blackgrass (Alopecurus myosuroides); settings: amount of applied herbicide 320 g/ha
Summary of the method: as §2

velvetleaf [14] = assay: Test Example 4: herbicidal effect by soil treatment (Table 19, symbol M); format: in vivo, velvetleaf (Abutilon theophrasti); settings: amount of applied herbicide 320 g/ha
Summary of the method: as §2

windgrass [15] = assay: Test Example 5: herbicidal effect by foliage application, plastic box (Table 20, symbol L); format: in vivo, windgrass (Apera spica-venti); settings: 320 g/ha, foliage application after 14-day growth, evaluated three weeks after application
Summary of the method: as §1

green foxtail [16] = assay: Test Example 4: herbicidal effect by soil treatment (Table 19, symbol G); format: in vivo, green foxtail (Setaria viridis); settings: amount of applied herbicide 320 g/ha
Summary of the method: as §2

windgrass [17] = assay: Test Example 4: herbicidal effect by soil treatment (Table 19, symbol L); format: in vivo, windgrass (Apera spica-venti); settings: amount of applied herbicide 320 g/ha
Summary of the method: as §2

persian speedwell [18] = assay: Test Example 5: herbicidal effect by foliage application, plastic box (Table 20, symbol R); format: in vivo, Persian speedwell (Veronica persica); settings: 320 g/ha, foliage application after 14-day growth, evaluated three weeks after application
Summary of the method: as §1

southern crabgrass [19] = assay: Test Example 4: herbicidal effect by soil treatment (Table 19, symbol F); format: in vivo, southern crabgrass (Digitaria ciliaris); settings: amount of applied herbicide 320 g/ha
Summary of the method: as §2

Italian ryegrass [20] = assay: Test Example 4: herbicidal effect by soil treatment (Table 19, symbol K); format: in vivo, Italian ryegrass (Lolium multiflorum); settings: amount of applied herbicide 320 g/ha
Summary of the method: as §2

wild oat [21] = assay: Test Example 4: herbicidal effect by soil treatment (Table 19, symbol I); format: in vivo, wild oat (Avena fatua); settings: amount of applied herbicide 320 g/ha
Summary of the method: as §2

chickweed [22] = assay: Test Example 4: herbicidal effect by soil treatment (Table 19, symbol P); format: in vivo, common chickweed (Stellaria media); settings: amount of applied herbicide 320 g/ha
Summary of the method: as §2

wild oat [23] = assay: Test Example 5: herbicidal effect by foliage application, plastic box (Table 20, symbol I); format: in vivo, wild oat (Avena fatua); settings: 320 g/ha, foliage application after 14-day growth, evaluated three weeks after application
Summary of the method: as §1

barnyard grass [24] = assay: Test Example 5: herbicidal effect by foliage application, plastic box (Table 20, symbol H); format: in vivo, barnyard grass (Echinochloa crus-galli); settings: 320 g/ha, foliage application after 14-day growth, evaluated three weeks after application
Summary of the method: as §1

rice flat sedge = assay: Test Example 3: herbicidal effect by foliage application, Wagner pot (Table 18, symbol E); format: in vivo, rice flat sedge (Cyperus iria); settings: 320 g/ha
Summary of the method: as §3

persian speedwell [25] = assay: Test Example 4: herbicidal effect by soil treatment (Table 19, symbol R); format: in vivo, Persian speedwell (Veronica persica); settings: amount of applied herbicide 320 g/ha
Summary of the method: as §2

| SMILES | herbicidal effect on M: velvetleaf (evaluation grade 0-5) (velvetleaf [1]) | Herbicidal effect by soil treatment, N: redroot pigweed (redroot pigweed [2]) | Herbicidal effect by soil treatment, H: barnyard grass (barnyard grass [3]) | herbicidal effect on P: chickweed (evaluation grade 0-5) (chickweed [4]) | herbicidal effect on barnyard grass (H) (barnyard grass [5]) | herbicidal effect on K: Italian ryegrass (evaluation grade 0-5) (Italian ryegrass [6]) | herbicidal effect on Chinese sprangletop (D) (Chinese sprangletop) | herbicidal effect on O: lambsquarters (evaluation grade 0-5) (lambsquarters [7]) | herbicidal effect on F: southern crabgrass (evaluation grade 0-5) (southern crabgrass [8]) | herbicidal effect on N: redroot pigweed (evaluation grade 0-5) (redroot pigweed [9]) | Herbicidal effect by soil treatment, O: lambsquarters (lambsquarters [10]) | herbicidal effect on J: blackgrass (evaluation grade 0-5) (blackgrass [11]) | herbicidal effect on G: green foxtail (evaluation grade 0-5) (green foxtail [12]) | Herbicidal effect by soil treatment, J: blackgrass (blackgrass [13]) | Herbicidal effect by soil treatment, M: velvetleaf (velvetleaf [14]) | herbicidal effect on L: windgrass (evaluation grade 0-5) (windgrass [15]) | Herbicidal effect by soil treatment, G: green foxtail (green foxtail [16]) | Herbicidal effect by soil treatment, L: windgrass (windgrass [17]) | herbicidal effect on R: persian speedwell (evaluation grade 0-5) (persian speedwell [18]) | Herbicidal effect by soil treatment, F: southern crabgrass (southern crabgrass [19]) | other results |
| --- | --- | --- | --- | --- | --- | --- | --- | --- | --- | --- | --- | --- | --- | --- | --- | --- | --- | --- | --- | --- | --- |
| COc1cc(F)ccc1-c1sc2c(F)cccc2c1-c1c(O)c(C)nn(C)c1=O [4-011] | 3 (Herbicidal rate of 40% or more and less than 70%) | 2 (Herbicidal rate of 20% or more and less than 40%) | 3 (Herbicidal rate of 40% or more and less than 70%) | 5 (Herbicidal rate of 90% or more (almost completely withered)) | 4 (Herbicidal rate of 70% or more and less than 90%) | 3 (Herbicidal rate of 40% or more and less than 70%) | 3 (Herbicidal rate of 40% or more and less than 70%) | 3 (Herbicidal rate of 40% or more and less than 70%) | 2 (Herbicidal rate of 20% or more and less than 40%) | 3 (Herbicidal rate of 40% or more and less than 70%) | 3 (Herbicidal rate of 40% or more and less than 70%) | 3 (Herbicidal rate of 40% or more and less than 70%) | 5 (Herbicidal rate of 90% or more (almost completely withered)) | 0 (Herbicidal rate of 5% or less (almost no effect)) | 0 (Herbicidal rate of 5% or less (almost no effect)) | 3 (Herbicidal rate of 40% or more and less than 70%) | 3 (Herbicidal rate of 40% or more and less than 70%) | 0 (Herbicidal rate of 5% or less (almost no effect)) | 5 (Herbicidal rate of 90% or more (almost completely withered)) | 0 (Herbicidal rate of 5% or less (almost no effect)) | Herbicidal effect by soil treatment, K: Italian ryegrass (Italian ryegrass [20]): 0 (Herbicidal rate of 5% or less (almost no effect)); Herbicidal effect by soil treatment, I: wild oat (wild oat [21]): 0 (Herbicidal rate of 5% or less (almost no effect)); Herbicidal effect by soil treatment, P: chickweed (chickweed [22]): 3 (Herbicidal rate of 40% or more and less than 70%); herbicidal effect on I: wild oat (evaluation grade 0-5) (wild oat [23]): 0 (Herbicidal rate of 5% or less (almost no effect)); herbicidal effect on H: barnyard grass (evaluation grade 0-5) (barnyard grass [24]): 3 (Herbicidal rate of 40% or more and less than 70%); herbicidal effect on rice flat sedge (E) (rice flat sedge): 5 (Herbicidal rate of 90% or more (almost completely withered)); Herbicidal effect by soil treatment, R: persian speedwell (persian speedwell [25]): 0 (Herbicidal rate of 5% or less (almost no effect)) |
| CCCC(=O)Oc1c(C)nn(C)c(=O)c1-c1c(-c2ccc(F)cc2OC)sc2c(Cl)cccc12 [4-034] | 3 (Herbicidal rate of 40% or more and less than 70%) | 4 (Herbicidal rate of 70% or more and less than 90%) | 3 (Herbicidal rate of 40% or more and less than 70%) | 5 (Herbicidal rate of 90% or more (almost completely withered)) | 4 (Herbicidal rate of 70% or more and less than 90%) | 0 (Herbicidal rate of 5% or less (almost no effect)) | 5 (Herbicidal rate of 90% or more (almost completely withered)) | 0 (Herbicidal rate of 5% or less (almost no effect)) | 0 (Herbicidal rate of 5% or less (almost no effect)) | 1 (Herbicidal rate of 5% or more and less than 20%) | 3 (Herbicidal rate of 40% or more and less than 70%) | 0 (Herbicidal rate of 5% or less (almost no effect)) | 3 (Herbicidal rate of 40% or more and less than 70%) | 0 (Herbicidal rate of 5% or less (almost no effect)) | 2 (Herbicidal rate of 20% or more and less than 40%) | 5 (Herbicidal rate of 90% or more (almost completely withered)) | 4 (Herbicidal rate of 70% or more and less than 90%) | 0 (Herbicidal rate of 5% or less (almost no effect)) | 4 (Herbicidal rate of 70% or more and less than 90%) | 3 (Herbicidal rate of 40% or more and less than 70%) | Herbicidal effect by soil treatment, K: Italian ryegrass (Italian ryegrass [20]): 0 (Herbicidal rate of 5% or less (almost no effect)); Herbicidal effect by soil treatment, I: wild oat (wild oat [21]): 0 (Herbicidal rate of 5% or less (almost no effect)); Herbicidal effect by soil treatment, P: chickweed (chickweed [22]): 0 (Herbicidal rate of 5% or less (almost no effect)); herbicidal effect on I: wild oat (evaluation grade 0-5) (wild oat [23]): 0 (Herbicidal rate of 5% or less (almost no effect)); herbicidal effect on H: barnyard grass (evaluation grade 0-5) (barnyard grass [24]): 3 (Herbicidal rate of 40% or more and less than 70%); herbicidal effect on rice flat sedge (E) (rice flat sedge): 4 (Herbicidal rate of 70% or more and less than 90%); Herbicidal effect by soil treatment, R: persian speedwell (persian speedwell [25]): 0 (Herbicidal rate of 5% or less (almost no effect)) |
